# Several values for one entry are separate records, joined by “and”; a condition that tells them apart may be missing. Equal entries are not always repeated. Inconclusive results and toxic doses are left out. Peptide text beside a SMILES is read from it.
# Test system: P388 leukemia ip, CD2F1 mice, survival T/C
# Assay: NCI In Vivo Anticancer Drug Screen. Data for tumor model P388 Leukemia (intraperitoneal) in CD2F1 (CDF1) mice
# Settings: endpoint: median survival time, higher = longer survival
# Summary of the method: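 Mice carrying the transplanted tumor received test compound or vehicle. Survival was recorded in each group, and the value is the treated-group measurement divided by that of the vehicle-treated control group.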
# [1] = dose: 25.0 mg/kg/injection, schedule: Q01DX005 (ip), vehicle: Klucel (hydroxypropylcellulose) (HPC)
# [2] = dose: 50.0 mg/kg/injection, schedule: Q01DX005 (ip), vehicle: Klucel (hydroxypropylcellulose) (HPC)
# [3] = dose: 50.0 mg/kg/injection, schedule: Q01DX009 (ip), vehicle: saline
# [4] = dose: 100.0 mg/kg/injection, schedule: Q04DX002 (ip), vehicle: saline with Tween-80
# [5] = dose: 50.0 mg/kg/injection, schedule: Q01DX009 (ip), vehicle: saline with Tween-80
# [6] = dose: 100.0 mg/kg/injection, schedule: Q01DX009 (ip), vehicle: saline with Tween-80
# [7] = dose: 200.0 mg/kg/injection, schedule: Q01DX009 (ip), vehicle: saline with Tween-80
# [8] = dose: 400.0 mg/kg/injection, schedule: Q01DX009 (ip), vehicle: saline with Tween-80
# [9] = dose: 100.0 mg/kg/injection, schedule: Q01DX005 (ip), vehicle: Klucel (hydroxypropylcellulose) (HPC)
# [10] = dose: 100.0 mg/kg/injection, schedule: Q04DX002 (ip), vehicle: saline
# [11] = dose: 200.0 mg/kg/injection, schedule: Q04DX002 (ip), vehicle: saline
# [12] = dose: 400.0 mg/kg/injection, schedule: Q04DX002 (ip), vehicle: saline
# [13] = dose: 120.0 mg/kg/injection, schedule: Q01DX005 (ip), vehicle: saline with Tween-80
# [14] = dose: 200.0 mg/kg/injection, schedule: Q01DX005 (ip), vehicle: Klucel (hydroxypropylcellulose) (HPC)
# [15] = dose: 400.0 mg/kg/injection, schedule: Q01DX005 (ip), vehicle: Klucel (hydroxypropylcellulose) (HPC)
# [16] = dose: 25.0 mg/kg/injection, schedule: Q01DX009 (ip), vehicle: saline with Tween-80
compound,measurement,setting,value
O=C([O][Bi]([c]1ccccc1)[c]1ccccc1)c1ccccc1,T/C,"dose: 6.25 mg/kg/injection, schedule: Q01DX005 (ip), vehicle: Klucel (hydroxypropylcellulose) (HPC)",113 % of control
same,T/C,"dose: 12.5 mg/kg/injection, schedule: Q01DX005 (ip), vehicle: Klucel (hydroxypropylcellulose) (HPC)",106 % of control
same,T/C,[1],102 % of control and 106 % of control
same,T/C,[2],122 % of control
Oc1ccc(CCNCc2ccc3c(c2)OCO3)cc1O,T/C,"dose: 100.0 mg/kg/injection, schedule: Q04DX002 (ip), vehicle: Klucel (hydroxypropylcellulose) (HPC)",99 % of control
same,T/C,"dose: 200.0 mg/kg/injection, schedule: Q04DX002 (ip), vehicle: Klucel (hydroxypropylcellulose) (HPC)",94 % of control
CC12CC(=O)CC1(C)CC(=O)C2 (configuration not stated),T/C,"dose: 12.5 mg/kg/injection, schedule: Q01DX009 (ip), vehicle: saline",92 % of control
same,T/C,"dose: 25.0 mg/kg/injection, schedule: Q01DX009 (ip), vehicle: saline",92 % of control
same,T/C,[3],86 % of control and 97 % of control
C=Cn1c([N+](=O)[O-])cnc1/C=C/c1ccc(C(=O)NCCO)cc1,T/C,[4],96 % of control
same,T/C,"dose: 200.0 mg/kg/injection, schedule: Q04DX002 (ip), vehicle: saline with Tween-80",93 % of control
same,T/C,"dose: 400.0 mg/kg/injection, schedule: Q04DX002 (ip), vehicle: saline with Tween-80",93 % of control
CN(C)C(=S)N1C(=O)C2C3CCC(O3)C2C1=O (configuration not stated),T/C,"dose: 1.87 mg/kg/injection, schedule: Q01DX005 (ip), vehicle: saline with Tween-80",102 % of control
same,T/C,"dose: 3.75 mg/kg/injection, schedule: Q01DX005 (ip), vehicle: saline with Tween-80",100 % of control
same,T/C,"dose: 7.5 mg/kg/injection, schedule: Q01DX005 (ip), vehicle: saline with Tween-80",99 % of control and 98 % of control
CCOC(=O)c1ccc(Nc2sc(C(=O)c3ccc(Br)cc3)c(N)c2C#N)cc1,T/C,[5],100 % of control
same,T/C,[6],108 % of control
same,T/C,[7],90 % of control
same,T/C,[8],86 % of control
O=[N+]([O-])c1cccnc1C1OCCO1,T/C,"dose: 50.0 mg/kg/injection, schedule: Q01DX009 (ip), vehicle: saline + Tween-80 + alcohol",102 % of control
same,T/C,"dose: 100.0 mg/kg/injection, schedule: Q01DX009 (ip), vehicle: saline + Tween-80 + alcohol",99 % of control
[CH3][Sn]([CH3])([N](c1ccccn1)c1ccccn1)[N](c1ccccn1)c1ccccn1,T/C,[2],111 % of control
same,T/C,[9],118 % of control
C[As+](C)(C)SCCO,T/C,[10],98 % of control
same,T/C,[11],95 % of control
same,T/C,[12],95 % of control
CC1SCCCS1,T/C,[3],98 % of control
same,T/C,"dose: 100.0 mg/kg/injection, schedule: Q01DX009 (ip), vehicle: saline",98 % of control
same,T/C,"dose: 200.0 mg/kg/injection, schedule: Q01DX009 (ip), vehicle: saline",97 % of control
same,T/C,"dose: 400.0 mg/kg/injection, schedule: Q01DX009 (ip), vehicle: saline",97 % of control
O=c1[nH]cnc2nc(N3CCOCC3)sc12,T/C,"dose: 50.0 mg/kg/injection, schedule: Q01DX005 (ip), vehicle: saline with Tween-80",93 % of control
same,T/C,[13],96 % of control
same,T/C,"dose: 200.0 mg/kg/injection, schedule: Q01DX005 (ip), vehicle: saline with Tween-80",95 % of control
CCN(CC)C(=O)c1c(Cl)c(Cl)c(Cl)c(Cl)c1C(=O)O,T/C,[5],112 % of control
same,T/C,[6],96 % of control
same,T/C,[7],96 % of control
same,T/C,[8],102 % of control
COc1cc(C2SCC(=O)N2c2nnc(C(F)(F)F)s2)cc(OC)c1OC (configuration not stated),T/C,"dose: 60.0 mg/kg/injection, schedule: Q01DX005 (ip), vehicle: saline with Tween-80",98 % of control
same,T/C,[13],88 % of control
CCC(C)C(NC(=O)C(N)CC(C)C)C(=O)O (stereo not drawn) (H-Leu-Ile-OH; configuration not given here),T/C,"dose: 60.0 mg/kg/injection, schedule: Q01DX005 (ip), vehicle: saline",108 % of control
same,T/C,"dose: 120.0 mg/kg/injection, schedule: Q01DX005 (ip), vehicle: saline",108 % of control
same,T/C,"dose: 240.0 mg/kg/injection, schedule: Q01DX005 (ip), vehicle: saline",104 % of control
C1=C[N-]c2c3c(ccc2=C1)=CC=C[N-]3.C1=C[N-]c2c3c(ccc2=C1)=CC=C[N-]3.C1C[N-]C2C(C1)CCC1CC[N-]CC12.[Ni],T/C,"dose: 3.12 mg/kg/injection, schedule: Q01DX005 (ip), vehicle: saline",97 % of control
same,T/C,"dose: 6.25 mg/kg/injection, schedule: Q01DX005 (ip), vehicle: saline",96 % of control
O=C(O)C1CC1.[Ag],T/C,"dose: 3.12 mg/kg/injection, schedule: Q01DX009 (ip), vehicle: saline with Tween-80",153 % of control
same,T/C,"dose: 6.25 mg/kg/injection, schedule: Q01DX009 (ip), vehicle: saline with Tween-80",97 % of control
Cc1cc2ccccc2nc1Cl,T/C,"dose: 60.0 mg/kg/injection, schedule: Q01DX005 (ip), vehicle: saline + Tween-80 + alcohol",100 % of control
same,T/C,"dose: 120.0 mg/kg/injection, schedule: Q01DX005 (ip), vehicle: saline + Tween-80 + alcohol",104 % of control
same,T/C,"dose: 240.0 mg/kg/injection, schedule: Q01DX005 (ip), vehicle: saline + Tween-80 + alcohol",104 % of control
O=C(O)C1CCCN1C(=O)OCc1ccccc1 (configuration not stated),T/C,[9],87 % of control
same,T/C,[14],89 % of control
same,T/C,[15],91 % of control
NC1C(=O)NC(=O)NC1=O,T/C,[1],96 % of control
same,T/C,[2],96 % of control
same,T/C,[9],98 % of control
same,T/C,[14],100 % of control
same,T/C,[15],105 % of control
Nc1ccc2c(-c3ccccc3)cc(=O)[nH]c2c1,T/C,[2],95 % of control
same,T/C,[9],100 % of control
CCOC(=O)CN1C=CC(=C/C(=N/S(=O)(=O)c2ccc(C)cc2)SC)C=C1,T/C,"dose: 25.0 mg/kg/injection, schedule: Q04DX002 (ip), vehicle: saline with Tween-80",100 % of control
same,T/C,"dose: 50.0 mg/kg/injection, schedule: Q04DX002 (ip), vehicle: saline with Tween-80",106 % of control
same,T/C,[4],104 % of control
OCC(O)C(O)C(O)C(/C=N\Nc1ccccc1)=N/Nc1ccccc1 (configuration not stated),T/C,[10],100 % of control
same,T/C,[11],97 % of control
same,T/C,[12],102 % of control
CCC1=C[C@H]2CN(CCc3c([nH]c4cc(Br)ccc34)[C@@](C(=O)OC)(c3cc4c(cc3OC)N(C)[C@H]3[C@@](O)(C(=O)OC)[C@H](OC(C)=O)[C@]5(CC)C=CCN6CC[C@]43[C@@H]65)C2)C1,T/C,"dose: 1.0 mg/kg/injection, schedule: Q01DX001 (ip), vehicle: water",113 % of control
same,T/C,"dose: 2.0 mg/kg/injection, schedule: Q01DX001 (ip), vehicle: water",115 % of control
same,T/C,"dose: 3.9 mg/kg/injection, schedule: Q01DX001 (ip), vehicle: water",118 % of control
same,T/C,"dose: 4.0 mg/kg/injection, schedule: Q01DX001 (ip), vehicle: water",122 % of control
same,T/C,"dose: 6.5 mg/kg/injection, schedule: Q01DX001 (ip), vehicle: water",119 % of control
same,T/C,"dose: 16.0 mg/kg/injection, schedule: Q01DX001 (ip), vehicle: water",153 % of control
same,T/C,"dose: 18.0 mg/kg/injection, schedule: Q01DX001 (ip), vehicle: water",169 % of control
same,T/C,"dose: 30.0 mg/kg/injection, schedule: Q01DX001 (ip), vehicle: water",173 % of control
same,T/C,"dose: 32.0 mg/kg/injection, schedule: Q01DX001 (ip), vehicle: water",185 % of control
CN1C(=O)C(=O)N(C)C(=O)C1=O,T/C,[2],100 % of control
same,T/C,[9],93 % of control
same,T/C,[14],103 % of control
Clc1ccccc1N1CCN(CCCN2CCN(c3ccccc3Cl)CC2)CC1,T/C,[16],97 % of control
same,T/C,[5],94 % of control
same,T/C,[6],100 % of control
CCOC(=O)CC(SP(=S)(OC)OC)C(=O)OCC (configuration not stated),T/C,[5],103 % of control
same,T/C,[6],112 % of control
same,T/C,[7],107 % of control
COc1cccc(CN2CCN(/N=C/c3c4c(O)c5c(O)c(C)c6c(c5c3O)C(=O)C(C)(O/C=C/C(OC)C(C)C(OC(C)=O)C(C)C(O)C(C)C(O)C(C)/C=C/C=C(C)C(=O)N4)O6)CC2)c1 (configuration not stated),T/C,"dose: 12.5 mg/kg/injection, schedule: Q01DX009 (ip), vehicle: saline with Tween-80",120 % of control
same,T/C,[16],118 % of control
same,T/C,[5],112 % of control and 117 % of control
same,T/C,[6],121 % of control
